Measurements reported in ChEMBL document CHEMBL4732126, “Design, synthesis, and biodistribution studies of new analogues of marine alkaloids: Potent in vitro and in vivo fungicidal agents against Candida spp” (Eur J Med Chem, 2021).
Converted amounts (≈) assume the structure as drawn. The source made the active and inactive calls. The rule behind the calls is not given here.

Legend:
Pichia kudriavzevii [1] = assay: Antifungal activity against Candida krusei ATCC 34135 assessed as reduction in fungal growth incubated for 48 hrs by broth microdilution method; type: functional
Candida albicans [2] = assay: Antifungal activity against Candida albicans isolate 6 assessed as reduction in fungal growth incubated for 48 hrs by broth microdilution method; type: functional
Candida albicans [3] = assay: Antifungal activity against Candida albicans isolate 9 assessed as reduction in fungal growth incubated for 48 hrs by broth microdilution method; type: functional
Nakaseomyces glabratus [4] = assay: Antifungal activity against Candida glabrata ATCC 2001 assessed as reduction in fungal growth incubated for 48 hrs by broth microdilution method; type: functional
Candida albicans [5] = assay: Antifungal activity against Candida albicans isolate 10 assessed as reduction in fungal growth incubated for 48 hrs by broth microdilution method; type: functional
Candida albicans [6] = assay: Antifungal activity against Candida albicans isolate 11 assessed as reduction in fungal growth incubated for 48 hrs by broth microdilution method; type: functional
Candida albicans [7] = assay: Antifungal activity against Candida albicans ATCC 10231 assessed as reduction in fungal growth incubated for 48 hrs by broth microdilution method; type: functional
Candida albicans [8] = assay: Antifungal activity against Candida albicans isolate 7 assessed as reduction in fungal growth incubated for 48 hrs by broth microdilution method; type: functional
Candida albicans [9] = assay: Antifungal activity against Candida albicans isolate 13 assessed as reduction in fungal growth incubated for 48 hrs by broth microdilution method; type: functional
Candida tropicalis [10] = assay: Antifungal activity against Candida tropicalis ATCC 28707 assessed as reduction in fungal growth incubated for 48 hrs by broth microdilution method; type: functional
Candida albicans [11] = assay: Antifungal activity against Candida albicans ATCC 18804 assessed as reduction in fungal growth incubated for 48 hrs by broth microdilution method; type: functional
Candida tropicalis [12] = assay: Fungicidal activity against Candida tropicalis ATCC 28707 assessed as fungal killing incubated for 48 hrs followed by plating on SD agar plate; type: functional; details: for MFC: read-out: MFC99.9
Candida albicans [13] = assay: Antifungal activity against Candida albicans isolate 12 assessed as reduction in fungal growth incubated for 48 hrs by broth microdilution method; type: functional
Candida albicans [14] = assay: Antifungal activity against Candida albicans isolate 8 assessed as reduction in fungal growth incubated for 48 hrs by broth microdilution method; type: functional
Candida albicans [15] = assay: Fungicidal activity against Candida albicans isolate 13 assessed as fungal killing incubated for 48 hrs followed by plating on SD agar plate; type: functional; details: for MFC: read-out: MFC99.9
Candida albicans [16] = assay: Fungicidal activity against Candida albicans isolate 12 assessed as fungal killing incubated for 48 hrs followed by plating on SD agar plate; type: functional; details: for MFC: read-out: MFC99.9
Candida albicans [17] = assay: Fungicidal activity against Candida albicans isolate 9 assessed as fungal killing incubated for 48 hrs followed by plating on SD agar plate; type: functional; details: for MFC: read-out: MFC99.9
Candida albicans [18] = assay: Fungicidal activity against Candida albicans ATCC 18804 assessed as fungal killing incubated for 48 hrs followed by plating on SD agar plate; type: functional; details: for MFC: read-out: MFC99.9
Nakaseomyces glabratus [19] = assay: Fungicidal activity against Candida glabrata ATCC 2001 assessed as fungal killing incubated for 48 hrs followed by plating on SD agar plate; type: functional; details: for MFC: read-out: MFC99.9
Pichia kudriavzevii [20] = assay: Fungicidal activity against Candida krusei ATCC 34135 assessed as fungal killing incubated for 48 hrs followed by plating on SD agar plate; type: functional; details: for MFC: read-out: MFC99.9
Candida albicans [21] = assay: Fungicidal activity against Candida albicans ATCC 10231 assessed as fungal killing incubated for 48 hrs followed by plating on SD agar plate; type: functional; details: for MFC: read-out: MFC99.9
Candida albicans [22] = assay: Fungicidal activity against Candida albicans isolate 10 assessed as fungal killing incubated for 48 hrs followed by plating on SD agar plate; type: functional; details: for MFC: read-out: MFC99.9
Candida albicans [23] = assay: Fungicidal activity against Candida albicans isolate 6 assessed as fungal killing incubated for 48 hrs followed by plating on SD agar plate; type: functional; details: for MFC: read-out: MFC99.9
Candida albicans [24] = assay: Fungicidal activity against Candida albicans isolate 7 assessed as fungal killing incubated for 48 hrs followed by plating on SD agar plate; type: functional; details: for MFC: read-out: MFC99.9
Candida albicans [25] = assay: Fungicidal activity against Candida albicans isolate 11 assessed as fungal killing incubated for 48 hrs followed by plating on SD agar plate; type: functional; details: for MFC: read-out: MFC99.9
Nakaseomyces glabratus [26] = assay: Antifungal activity against Candida glabrata ATCC 2001 assessed as reduction in fungal growth incubated for 48 hrs in presence of sorbitol by broth microdilution method; type: functional
Candida tropicalis [27] = assay: Antifungal activity against Candida tropicalis ATCC 28707 assessed as reduction in fungal growth incubated for 48 hrs in presence of sorbitol by broth microdilution method; type: functional
Candida albicans [28] = assay: Antifungal activity against Candida albicans ATCC 10231 assessed as reduction in fungal growth incubated for 48 hrs in presence of sorbitol by broth microdilution method; type: functional
Pichia kudriavzevii [29] = assay: Antifungal activity against Candida krusei ATCC 34135 assessed as reduction in fungal growth incubated for 48 hrs in presence of sorbitol by broth microdilution method; type: functional
Candida albicans [30] = assay: Antifungal activity against Candida albicans isolate 4 assessed as reduction in fungal growth incubated for 48 hrs by broth microdilution method; type: functional
Candida albicans [31] = assay: Antifungal activity against Candida albicans isolate 3 assessed as reduction in fungal growth incubated for 48 hrs by broth microdilution method; type: functional
Candida albicans [32] = assay: Fungicidal activity against Candida albicans isolate 2 assessed as fungal killing incubated for 48 hrs followed by plating on SD agar plate; type: functional; details: read-out: MFC99.9
Candida albicans [33] = assay: Antifungal activity against Candida albicans isolate 1 assessed as reduction in fungal growth incubated for 48 hrs by broth microdilution method; type: functional
Candida albicans [34] = assay: Antifungal activity against Candida albicans isolate 5 assessed as reduction in fungal growth incubated for 48 hrs by broth microdilution method; type: functional
Candida albicans [35] = assay: Fungicidal activity against Candida albicans isolate 4 assessed as fungal killing incubated for 48 hrs followed by plating on SD agar plate; type: functional; details: read-out: MFC99.9
Candida albicans [36] = assay: Fungicidal activity against Candida albicans isolate 8 assessed as fungal killing incubated for 48 hrs followed by plating on SD agar plate; type: functional
Candida albicans [37] = assay: Antifungal activity against Candida albicans ATCC 10231 assessed as inhibition of yeast to hypha morphological transition at 125 ug/ml measured upto 72 hrs by microscopic analysis; type: functional, organism-based; details: dose 125.0 µg/ml, time hrs <=72
Candida albicans [38] = assay: Fungicidal activity against Candida albicans ATCC 10231 assessed as reduction in fungal load at 125 ug/ml incubated for 48 hrs followed by inoculation on SD agar plate for 48 hrs by time-kill assay; type: functional, organism-based; details: dose 125.0 µg/ml, time 96.0 hrs
Candida albicans [39] = assay: Antifungal activity against Candida albicans isolate 2 assessed as reduction in fungal growth incubated for 48 hrs by broth microdilution method; type: functional
Pichia kudriavzevii [40] = assay: Antifungal activity against Candida krusei ATCC 34135 assessed as reduction in fungal growth incubated for 48 hrs in presence of ergosterol by broth microdilution method; type: functional
Candida albicans [41] = assay: Antifungal activity against Candida albicans ATCC 10231 assessed as reduction in fungal growth incubated for 48 hrs in presence of ergosterol by broth microdilution method; type: functional
Candida tropicalis [42] = assay: Antifungal activity against Candida tropicalis ATCC 28707 assessed as reduction in fungal growth incubated for 48 hrs in presence of ergosterol by broth microdilution method; type: functional
Nakaseomyces glabratus [43] = assay: Antifungal activity against Candida glabrata ATCC 2001 assessed as reduction in fungal growth incubated for 48 hrs in presence of ergosterol by broth microdilution method; type: functional
Candida albicans [44] = assay: Antibiofilm activity against Candida albicans ATCC 10231 assessed as reduction in mature biofilm at 125 ug/ml incubated for 48 hrs by crystal violet staining based spectrophotometric analysis relative to control; type: functional; details: dose 125.0 µg/ml

Compound	MIC (Pichia kudriavzevii [1]) [µg/mL]	MIC (Candida albicans [2]) [µg/mL]	MIC (Candida albicans [3]) [µg/mL]	MIC (Nakaseomyces glabratus [4]) [µg/mL]	MIC (Candida albicans [5]) [µg/mL]	MIC (Candida albicans [6]) [µg/mL]	MIC (Candida albicans [7]) [µg/mL]	MIC (Candida albicans [8]) [µg/mL]	MIC (Candida albicans [9]) [µg/mL]	MIC (Candida tropicalis [10]) [µg/mL]	MIC (Candida albicans [11]) [µg/mL]	MFC (Candida tropicalis [12]) [µg/mL]	MIC (Candida albicans [13]) [µg/mL]	MIC (Candida albicans [14]) [µg/mL]	MFC (Candida albicans [15]) [µg/mL]	MFC (Candida albicans [16]) [µg/mL]	MFC (Candida albicans [17]) [µg/mL]	MFC (Candida albicans [18]) [µg/mL]	MFC (Nakaseomyces glabratus [19]) [µg/mL]	MFC (Pichia kudriavzevii [20]) [µg/mL]	further results
[N-]=[N+]=NCCCCCCCCCCCCOCCCc1cccnc1	> 500	> 500	> 500	> 500	> 500	> 500	> 500	> 500	> 500	40 (≈ 115 µM)	> 500	160 (≈ 462 µM)	> 500	> 500							
COC(=O)CCNCCCCCCCCCCCCOCCCc1cccnc1	250 (≈ 615 µM)	250 (≈ 615 µM)	250 (≈ 615 µM)	160 (≈ 393 µM)	250 (≈ 615 µM)	250 (≈ 615 µM)	250 (≈ 615 µM)	250 (≈ 615 µM)	160 (≈ 393 µM)	160 (≈ 393 µM)	250 (≈ 615 µM)	160 (≈ 393 µM)	250 (≈ 615 µM)	> 500	160 (≈ 393 µM)	> 500	250 (≈ 615 µM)	250 (≈ 615 µM)	160 (≈ 393 µM)	250 (≈ 615 µM)	MFC (Candida albicans [21]): 250 µg/mL (≈ 615 µM); MFC (Candida albicans [22]): 250 µg/mL (≈ 615 µM); MFC (Candida albicans [23]): > 500 µg/mL; MFC (Candida albicans [24]): 250 µg/mL (≈ 615 µM); MFC (Candida albicans [25]): 250 µg/mL (≈ 615 µM)
CC[C@H](C)C[C@H](C)CCCCCCCCC(=O)N[C@H]1C[C@@H](O)[C@@H](NCCN)NC(=O)[C@@H]2[C@@H](O)CCN2C(=O)[C@H]([C@H](O)CCN)NC(=O)[C@H]([C@H](O)[C@@H](O)c2ccc(O)cc2)NC(=O)[C@@H]2C[C@@H](O)CN2C(=O)[C@H]([C@@H](C)O)NC1=O [CASPOFUNGIN]	0.0625 (≈ 0.0572 µM)			0.5 (≈ 0.457 µM)			4 (≈ 3.66 µM)			0.0625 (≈ 0.0572 µM)											MIC (Nakaseomyces glabratus [26]): 1 µg/mL; MIC (Candida tropicalis [27]): 0.25 µg/mL; MIC (Candida albicans [28]): 15.6 µg/mL; MIC (Pichia kudriavzevii [29]): 0.25 µg/mL
CC(=O)N1CCN(c2ccc(OCC3COC(Cn4ccnc4)(c4ccc(Cl)cc4Cl)O3)cc2)CC1 (stereo not drawn) [KETOCONAZOLE]	7.8 (≈ 14.7 µM)	0.97 (≈ 1.83 µM)	31.2 (≈ 58.8 µM)	125 (≈ 235 µM)	7.8 (≈ 14.7 µM)	31.2 (≈ 58.8 µM)	31.2 (≈ 58.8 µM)	1.95 (≈ 3.67 µM)	15.6 (≈ 29.4 µM)	31.2 (≈ 58.8 µM)	31.2 (≈ 58.8 µM)	62.5 (≈ 118 µM)	15.6 (≈ 29.4 µM)	3.9 (≈ 7.34 µM)	250 (≈ 470 µM)	500 (≈ 941 µM)	250 (≈ 470 µM)	125 (≈ 235 µM)	> 500	7.8 (≈ 14.7 µM)	MIC (Candida albicans [30]): 31.2 µg/mL (≈ 58.8 µM); MIC (Candida albicans [31]): > 500 µg/mL; MFC (Candida albicans [32]): > 500 µg/mL; MIC (Candida albicans [33]): > 500 µg/mL; MIC (Candida albicans [34]): > 500 µg/mL; MFC (Candida albicans [35]): 125 µg/mL (≈ 235 µM); MFC (Candida albicans [21]): 125 µg/mL (≈ 235 µM); MFC (Candida albicans [36]; read-out: MFC99.9): 7.8 µg/mL (≈ 14.7 µM); MFC (Candida albicans [22]): 62.5 µg/mL (≈ 118 µM); Activity (Candida albicans [37]): Active; MFC (Candida albicans [23]): 3.9 µg/mL (≈ 7.34 µM); MFC (Candida albicans [24]): 7.8 µg/mL (≈ 14.7 µM); Activity (Candida albicans [38]): inactive; MFC (Candida albicans [25]): 125 µg/mL (≈ 235 µM); MIC (Candida albicans [39]): 62.3 µg/mL (≈ 117 µM)
NYSTATIN	8	4	4	4	4	4	4	4	2	2	4		2	4							MFC99.9 (Candida albicans [15]): 2 µg/mL; MIC (Pichia kudriavzevii [40]): 31.2 µg/mL; MFC99.9 (Candida albicans [16]): 4 µg/mL; MIC (Candida albicans [41]): 31.2 µg/mL; MIC (Candida tropicalis [42]): 3.9 µg/mL; MFC99.9 (Candida albicans [17]): 4 µg/mL; MFC99.9 (Candida albicans [18]): 4 µg/mL; MFC99.9 (Nakaseomyces glabratus [19]): 4 µg/mL; MFC99.9 (Pichia kudriavzevii [20]): 8 µg/mL; MFC99.9 (Candida albicans [21]): 4 µg/mL; MFC99.9 (Candida albicans [36]): 4 µg/mL; MFC99.9 (Candida albicans [22]): 4 µg/mL; MFC99.9 (Candida albicans [23]): 4 µg/mL; MIC (Nakaseomyces glabratus [43]): 31.2 µg/mL; MFC99.9 (Candida tropicalis [12]): 2 µg/mL; MFC99.9 (Candida albicans [24]): 4 µg/mL; MFC99.9 (Candida albicans [25]): 4 µg/mL; inhibition (Candida albicans [44]): 25%
